Measurements published in patent publication US9714265B2, “Mutagenic nucleoside analogs and uses thereof” (Massachusetts Institute of Technology, priority 2015, dated 2017).

Tests used:
[1] = pH-dependent 1D FTIR / 2D IR spectroscopy of KP1212 in aqueous solutions (pKa); type: physicochemical; conditions: aqueous (D2O) solutions, pH* varied from 1.6 to 13.9; 1D and/or 2D IR spectroscopy, 25° C.
Procedure: FIGS. 1A to 1E. FIG. 1A: pH-dependent (Fourier transform infrared) FTIR spectra of KP1212 from pH* 1.6 (red or thin solid line) to 13.9 (blue or thick solid line) at 25° C. FIG. 1B: populations of protonated, neutral, and deprotonated KP1212 as a function of pH* obtained from the first three components of singular value decomposition (SVD) analysis. The solid lines show fits of the Henderson-Hasselbalch equation with pKa1 and pKa2. FIGS. 1C to 1E: SVD reconstructed IR spectra representative for the protonated (FIG. 1C), neutral (FIG. 1D), and deprotonated (FIG. 1E) KP1212. The grey curves, labeled A, in FIG. 1C and FIG. 1D are the experimental FTIR spectra of 1-(1′,4′-cyclohexadienyl)-2-methylaminopropane (CMP) at pH* 1.6 and 7.4, respectively. The pH* is the pH measured in D2O, as measured with a pH meter. The FTIR experiments were run in D2O.
An in vitro assay has been developed that allowed the measurement of the mutation type and rate of KP1212 at different pH values, and the mutagenic properties of KP1212 have been evaluated at pH 6-8. […] By simply changing the pH of a composition (e.g., a bodily fluid or aqueous solution) containing KP1212 to 5.9, KP1212 achieves its optimal mutagenicity of about 50%.
For both 1D FTIR and 2D IR experiments, the H/D exchanged KP1212 was dissolved at a concentration of 20 mg/ml (88 mM) in 0.5 M phosphate buffer pD (pH reading in D2O) 7.9. […]

[2] = tested on: M13 single-stranded genomes, containing one KP1212 base at a specific site; experiment: primer extension at various pHs on M13 genome containing KP1212, PCR and REAP assay (mutagenesis); type: biochemical
Procedure: The method of evaluating the mutagenicity of a compound allows for analyzing the product of a primer extension reaction (by itself a trivial reaction, even if run at different pHs) with the REAP method (this method was published in Delaney, J. C. & Essigmann, J. M., Methods Enzymol. 408, 1-15 (2006)). The methods involve a custom primer, of the form 5′-B-A-3′ and the following protocol. The A sequence is the actual primer for the extension reaction, and by itself has a low (about 37° C.) melting temperature. […] Its melting temperature is high, at about 70° C. The template of the primer extension reaction is an M13 genome containing at a specific site a modified base (or nucleoside analog). After the primer extension reaction, a PCR reaction is run using two primers; primer 1 is the forward primer used in the REAP method (or a primer annealing on the M13 genome upstream of the lesion site); primer 2 is exactly the sequence B. This method guarantees that only the primer extension product will be PCR amplified, and amplification will not depend on the yield of the primer extension reaction. Therefore, this method allows to detect and analyze mutagenic consequences (including rare events) of nucleoside analogs in a variety of conditions, where the type of polymerase, pH, ionic strength, salt concentration, and inhibitors can be varied over a large range of possibilities.
The M13 single-stranded genomes, containing one KP1212 base at a specific site were constructed and purified as previously reported (Li, Fedeles, Singh, Peng et al, 2014, Tautomerism provides a molecular explanation for the mutagenic properties of the anti-HIV nucleoside 5-aza-5,6-dihydro-2′-deoxycytidine, Proc. Natl. Acad. Sci. U.S.A. 111, E3252-3259). […]
The PCR products were subsequently purified and analyzed with the REAP assay as previously described (Li, Fedeles, Singh, Peng et al, 2014, Tautomerism provides a molecular explanation for the mutagenic properties of the anti-HIV nucleoside 5-aza-5,6-dihydro-2′-deoxycytidine. Proc. Natl. Acad. Sci. U.S.A. 111, E3252-3259). […]

[3] = tested on: single-stranded vector containing a single KP1212; experiment: in vitro and in vivo replication of a single-stranded vector containing a single KP1212
Text: Mutagenic nucleoside analogs may act through lethal mutagenesis. Lethal mutagenesis is a strategy whereby the innate immune system or mutagenic pool nucleotides increase the error rate of viral replication above the error catastrophe limit. Lethal mutagenesis can also increase the mutation rate of the DNA and/or RNA of cancer cells (e.g., cancer cells with a mutator phenotype) to over the error catastrophe limit and thus show genotoxicity and/or mitochondrial toxicity against the cancer cells. Lethal mutagenesis is proposed as a mechanism for several anti-viral compounds, including Ribavirin, which is useful for treating RS virus infection (RSV) and KP1212, a dihydro base which causes A to G and G to A mutations in HIV. […] The mutagenic properties of KP1212 were determined empirically by in vitro and in vivo replication of a single-stranded vector containing a single KP1212. […] A model is proposed that correlates the mutagenicity of KP1212 with its tautomeric distribution in solution. When incorporated into HIV DNA by RT, KP1212 allows DNA synthesis to continue. However, the modified base of KP1212 is able to tautomerize and base-pair alternately with guanine and adenine. […] Variable temperature (VT) nuclear magnetic resonance (NMR) techniques have allowed the identification of compounds capable of multiple tautomerism.

HIV = conditions: Phase I and II; active form of the pro-drug KP1461; cited from earlier work

SMILES: NC1=NC(=O)N([C@H]2C[C@H](O)[C@@H](CO)O2)CN1 [KP1212, 5-aza-5,6-dihydro-2′-deoxycytidine]
- pKa [1]: ~7
- mutagenesis ([2]; at pH 5.9): about 50%
- mutagenesis ([2]; at pH 8): about 10%
- C-to-T mutations in dependence on pH ([2]; pH 5.5-8.5): more C-to-T mutations as the pH decreases
- mutagenicity [3]: 10%
- C-to-T mutations ([3]; in vivo, when present in a template strand): about 10%
- paired with adenine, share of the time ([3]; under physiological conditions): about 10%
- paired with guanine, share of the time ([3]; under physiological conditions): approximately 90%
- safety in clinical trials (HIV): safe
